The values that follow come from patent US11220483B2, “Tetrahydro-benzo[d]azepine derivatives as GPR120 modulators” (CALDAN THERAPEUTICS LIMITED, priority 2018, dated 2022).

The structures appear in SMILES notation.

For the assay, the target named is T1, human GPR120 (Homo sapiens, UniProt Q5NUL3).
T1 construct: expressed in transfected cells; host or cells: HEK293T, transient transfection with PEI
T1 sequence (Q5NUL3 1-361): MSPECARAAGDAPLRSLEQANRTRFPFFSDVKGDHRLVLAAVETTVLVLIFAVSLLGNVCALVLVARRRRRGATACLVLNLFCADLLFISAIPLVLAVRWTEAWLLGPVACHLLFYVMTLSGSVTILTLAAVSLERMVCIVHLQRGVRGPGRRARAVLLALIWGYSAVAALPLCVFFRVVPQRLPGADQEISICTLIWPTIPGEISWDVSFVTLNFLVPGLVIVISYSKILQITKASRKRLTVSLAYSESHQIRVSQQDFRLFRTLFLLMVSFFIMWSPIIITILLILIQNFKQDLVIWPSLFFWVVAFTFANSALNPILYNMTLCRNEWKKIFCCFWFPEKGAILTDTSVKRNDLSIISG
Description: Human GPR120-β Arrestin 2 BRET agonist assay. In kind it is cell-based. As to conditions: HEK293T cells transiently co-expressing hGPR120-eYFP and β-arrestin 2-RLuc; BRET normalised to DMSO (0%) and TUG-891 (100%); read-out: hGPR120 pEC50 (converted). Here is the method:
pEC50 data was obtained by the following procedure:
Human GPR120-β Arrestin 2 Bio-Luminescence Resonance Energy Transfer (BRET) Agonist Assay Procedure
HEK293T cells were cultured in growth media composed of DMEM L-glutamine media supplemented with 10% (v:v) fetal bovine serum (FBS) and 1% (v:v) 10,000 units penicillin/10 mgml^−1 streptomycin at 37° C., 5% CO2. HEK293T cells transiently co-expressing human GPR120 […] and b-arrestin 2 were generated by transfection with plasmids encoding a construct of hGPR120 […] fused at its C terminal with enhanced yellow fluorescent protein (eYFP), and another encoding β-arrestin 2 fused to Renilla luciferase (RLuc), using Polyethylenimine (PEI) as the transfection reagent.
Transfected cells were cryopreserved in batches for consistency between replicate assays. Twenty-four hours post transfection, cells were harvested with non-enzymatic cell dissociation buffer and re-suspended in DMEM medium supplemented with 10% DMSO and 10% FBS before being transferred first to −80° C. overnight and then to liquid nitrogen for long-term storage. On the day prior to the assay, cells were thawed at 37° C. and re-suspended in growth media. A 96 well white opaque bottom microtitre plate was then seeded with 40,000 cells in a volume of 100 μl growth media per well and seeded plates were then incubated overnight at 37° C., 5% CO2. On the day of the BRET experiment, cells were washed twice with BRET assay buffer (Hanks balanced salt solution (HBSS) supplemented with 10 mM HEPES (pH 7.4)), then 80 μl per well of BRET assay buffer was added before the plate was incubated for 30 minutes at 37° C., 5% CO2. Then, Renilla luciferase substrate coelenterazine h (5 μM) was added to the cells and incubated at 37° C. for 10 minutes before the addition of GPR120 agonist (TUG-891) or test compound for a further 5 minutes at 37° C.
Bio-luminescence at λ 535 nm and λ 475 nm was then measured with a Pherastar FsX instrument, and the λ 535/λ 475 ratio of bio-luminescence was then used to calculate a BRET value. hGPR120 agonist potency values (pEC50) were calculated by normalising the BRET values to the DMSO vehicle (0% control) and TUG-891 (100% control) and then fitting the normalised data to a 3-parameter concentration-response curve.
A general note: Bioluminescence resonance energy transfer reports proximity on the nanometre scale.

In the case of `CC(Cc1ccc2c(c1)CCN(c1cc(OC3CCC3)ccc1F)C2)C(=O)O` (racemic) [Compound 27, 3-(2-(5-cyclobutoxy-2-fluorophenyl)-1,2,3,4-tetrahydroisoquinolin-6-yl)-2-methylpropanoic acid], the EC50 was 100 nM.
As to `O=C(O)C1CC1c1ccc2c(c1)CCN(c1cc(OC3CCC3)ccc1F)C2` (racemic) [Compound 34, 2-(2-(5-cyclobutoxy-2-fluorophenyl)-1,2,3,4-tetrahydroisoquinolin-6-yl)cyclopropanecarboxylic Acid], the EC50 is 158 nM.
The result for `O=C(O)C1CC1c1ccc2c(c1)CCN(c1cc(OC3CCC3)ccc1F)C2` (single isomer, unassigned) [34 isomer 1] reads 158 nM; that for `O=C(O)C1CC1c1ccc2c(c1)CCN(c1cc(OC3CCC3)ccc1F)C2` (single isomer, unassigned) [34 isomer 2], 79.4 nM.
Regarding `O=C(O)C1CC1c1ccc2c(c1)CCN(c1nc(OC3CCC3)ccc1F)C2` (single isomer, unassigned) [37 Isomer 1], the EC50 is 63.1 nM.
The result for `O=C(O)C1CC1c1ccc2c(c1)CCN(c1cccc(Oc3ccccc3)c1)C2` (single isomer, unassigned) [38 isomer 1] reads 50.1 nM; that for `O=C(O)C1CC1c1ccc2c(c1)CCN(c1cccc(Oc3ccccc3)c1)C2` (single isomer, unassigned) [38 isomer 2], 39.8 nM; that for `O=C(O)CCc1ccc2c(c1)CCN(c1cc(OC(F)(F)F)ccc1F)C2` [Compound 1, 3-(2-(2-Fluoro-5-(trifluoromethoxy)phenyl)-1,2,3,4-tetrahydroisoquinolin-6-yl)propanoic Acid], 39.8 nM.
The figure for `CO[C@H]1C[C@H](Oc2ccc(F)c(N3CCc4cc(CCC(=O)O)ccc4C3)c2)C1` [Compound 2, 3-(2-(2-fluoro-5-((1r,3r)-3-methoxycyclobutoxy)phenyl)-1,2,3,4-tetrahydroisoquinolin-6-yl)propanoic acid] is 158 nM.
The result for `O=C(O)CCc1ccc2c(c1)CCN(c1cc(OC3CCC3)cc(F)c1F)C2` [Compound 3, 3-(2-(5-cyclobutoxy-2,3-difluorophenyl)-1,2,3,4-tetrahydroisoquinolin-6-yl)propanoic acid] reads 10 nM.
`O=C(O)CCc1ccc2c(c1)CCN(c1ccccc1Oc1ccccc1)C2` [Compound 4, 3-(2-(2-phenoxyphenyl)-1,2,3,4-tetrahydroisoquinolin-6-yl)propanoic acid]: the EC50 is 158 nM.
The figure for `O=C(O)CCc1ccc2c(c1)CCN(c1cccnc1OC1CCC1)C2` [Compound 5, 3-(2-(2-cyclobutoxypyridin-3-yl)-1,2,3,4-tetrahydroisoquinolin-6-yl)propanoic acid] is 7940 nM; for `N#Cc1ccc(OC(F)(F)F)cc1N1CCc2cc(CCC(=O)O)ccc2C1` [Compound 6, 3-(2-(2-cyano-5-(trifluoromethoxy)phenyl)-1,2,3,4-tetrahydroisoquinolin-6-yl)propanoic acid] it is 79.4 nM; for `O=C(O)CCc1ccc2c(c1)CCN(c1nc(OC3CCC3)ccc1F)C2` [Compound 7, 3-(2-(6-cyclobutoxy-3-fluoropyridin-2-yl)-1,2,3,4-tetrahydroisoquinolin-6-yl)propanoic acid] it is 15.8 nM.
The result for `O=C(O)CCc1ccc2c(c1)CCN(c1ncc(F)c(OC3CCC3)n1)C2` [Compound 8, 3-(2-(4-cyclobutoxy-5-fluoropyrimidin-2-yl)-1,2,3,4-tetrahydroisoquinolin-6-yl)propanoic acid] reads 63.1 nM.
The result for `O=C(O)CCc1ccc2c(c1)CCN(c1cc(Oc3ccccc3)ccc1F)C2` [Compound 9, 3-(2-(2-fluoro-5-phenoxyphenyl)-1,2,3,4-tetrahydroisoquinolin-6-yl)propanoic acid] reads 20 nM; that for `O=C(O)CCc1ccc2c(c1)CCN(c1cccc(OC(F)(F)F)c1)C2` [Compound 10, 3-(2-(3-(Trifluoromethoxy)phenyl)-1,2,3,4-tetrahydroisoquinolin-6-yl)propanoic Acid], 158 nM; that for `O=C(O)CCc1ccc2c(c1)CCN(c1cc(OC3CCC3)ccc1Cl)C2` [Compound 11, 3-(2-(2-chloro-5-cyclobutoxyphenyl)-1,2,3,4-tetrahydroisoquinolin-6-yl)propanoic acid], 50.1 nM.
`O=C(O)CCc1ccc2c(c1)CCN(c1cccc(OC3CCC3)c1)C2` [Compound 12, 3-(2-(3-cyclobutoxyphenyl)-1,2,3,4-tetrahydroisoquinolin-6-yl)propanoic acid]: the EC50 was 158 nM.
The figure for `O=C(O)CCc1ccc2c(c1)CCN(c1cc(OC3CCC3)ccc1F)C2` [Compound 13, 3-(2-(5-cyclobutoxy-2-fluorophenyl)-1,2,3,4-tetrahydroisoquinolin-6-yl)propanoic acid] is 20 nM; for `Cc1ccc(OC2CCC2)cc1N1CCc2cc(CCC(=O)O)ccc2C1` [Compound 14, 3-(2-(5-cyclobutoxy-2-methylphenyl)-1,2,3,4-tetrahydroisoquinolin-6-yl)propanoic acid] it is 50.1 nM; for `CC1(C)Cc2cc(Cl)cc(N3CCc4cc(CCC(=O)O)ccc4C3)c2O1` [Compound 15, 3-(2-(5-chloro-2,2-dimethyl-2,3-dihydrobenzofuran-7-yl)-1,2,3,4-tetrahydroisoquinolin-6-yl)propanoic acid] it is 631 nM.
With `O=C(O)CCc1ccc2c(c1)CCN(c1cccc(C(F)(F)F)c1)C2` [Compound 16, 3-(2-(3-(trifluoromethyl)phenyl)-1,2,3,4-tetrahydroisoquinolin-6-yl)propanoic acid], the EC50 is 501 nM.
The figure for `N#Cc1ccc(N2CCc3cc(CCC(=O)O)ccc3C2)cc1` [Compound 17, 3-(2-(4-cyanophenyl)-1,2,3,4-tetrahydroisoquinolin-6-yl)propanoic acid] is 7940 nM; for `O=C(O)CCc1ccc2c(c1)CCN(c1ccnc(C3CC3)n1)C2` [Compound 18, 3-(2-(2-cyclopropylpyrimidin-4-yl)-1,2,3,4-tetrahydroisoquinolin-6-yl)propanoic acid] it is 25100 nM.
The result for `O=C(O)CCc1ccc2c(c1)CCN(c1cc(F)cc(OC3CCC3)c1)C2` [Compound 19, 3-(2-(3-cyclobutoxy-5-fluorophenyl)-1,2,3,4-tetrahydroisoquinolin-6-yl)propanoic acid] reads 25.1 nM; that for `O=C(O)CCc1ccc2c(c1)CCN(c1cccc(Oc3ccccc3)c1)C2` [Compound 20, 3-(2-(3-phenoxyphenyl)-1,2,3,4-tetrahydroisoquinolin-6-yl)propanoic acid], 25.1 nM.
Consider `O=C(O)CCc1ccc2c(c1)CCN(c1cccc(OC3CCC3)n1)C2` [Compound 21, 3-(2-(6-cyclobutoxypyridin-2-yl)-1,2,3,4-tetrahydroisoquinolin-6-yl)propanoic acid], for which the EC50 is 39.8 nM.
The result for `O=C(O)CCc1ccc2c(c1)CCN(c1cccc(OC(F)(F)F)n1)C2` [Compound 22, 3-(2-(6-(trifluoromethoxy)pyridin-2-yl)-1,2,3,4-tetrahydroisoquinolin-6-yl)propanoic acid] reads 316 nM.
The result for `O=C(O)CCc1ccc2c(c1)CCN(c1cccc(-c3ccccc3)c1)C2` [Compound 23, 3-(2-([1,1′-biphenyl]-3-yl)-1,2,3,4-tetrahydroisoquinolin-6-yl)propanoic acid] reads 398 nM.
The result for `O=C(O)CCc1ccc2c(c1)CCN(c1cc(F)cc(-c3ccccc3)c1)C2` [Compound 24, 3-(2-(5-fluoro-[1,1′-biphenyl]-3-yl)-1,2,3,4-tetrahydroisoquinolin-6-yl)propanoic acid] reads 398 nM; that for `COc1cc(OC(F)(F)F)cc(N2CCc3cc(CCC(=O)O)ccc3C2)c1` [Compound 25, 3-(2-(3-methoxy-5-(trifluoromethoxy)phenyl)-1,2,3,4-tetrahydroisoquinolin-6-yl)propanoic acid], 63.1 nM.
